Reference: publication PMC10419185 (International Journal of Molecular Sciences, 2023)
Where a name gives a salt, the structure may show the parent alone. Read-outs that look alike come from different tables or passages of the source.

Assays:
[1] = tested on: RML-infected hemizygous Tg37+/- mice; details: mouse, in vivo; cited from earlier work
[2] = tested on: 263K scrapie-infected hamster cerebellar tissue slices; assay type: cell-based, golden hamster; details: for PrPSc levels, comparison of c-Abl tyrosine kinase inhibitors: 10 and 20 μM for 5 weeks (Supplementary Figure S3)
scrapie-infected mice = details: cited from earlier work
[3] = hamster, in vivo; for T1/2: male, golden
in vivo = details: male, hamster; for half-life / Tmax: po; for half-life: T1/2; for Kp: B/P ratio (%)
ZW13-2-22L cells = assay type: cell-based, mouse
ZW13-2-139A cells = assay type: cell-based, mouse
[4] = tested on: 22L scrapie-infected Tga20 cerebellar tissue slices; assay type: cell-based, Tga20 mouse; details: 25 μM, slices cultured for 3 or 5 weeks
263K scrapie strain [5] = assay type: in vivo, golden hamster
263K scrapie strain [6] = assay type: in vivo, golden hamster; details: 100 mg/kg IG
[7] = tested on: ZW13-2, ZW13-2-22L and ZW13-2-139A cells
[8] = mouse, in vivo; cited from earlier work

Compound: O=C(CC(=O)c1ccccc1)c1ccccc1 [dibenzoylmethane]
- survival [1]: significantly prolong survival without reducing the PrP^Sc levels

Compound: Cc1ccc(NC(=O)c2ccc(CN3CCN(C)CC3)cc2)cc1Nc1nccc(-c2cccnc2)n1 [imatinib, imatinib mesylate]
- PrPSc levels, comparison of c-Abl tyrosine kinase inhibitors [2]: had no effect
- survival times of scrapie-infected mice (scrapie-infected mice): prolongs the survival times of scrapie-infected mice

Compound: Cc1cn(-c2cc(NC(=O)c3ccc(C)c(Nc4nccc(-c5cccnc5)n4)c3)cc(C(F)(F)F)c2)cn1 [nilotinib, nilotinib hydrochloride monohydrate]
- PrPSc levels, comparison of c-Abl tyrosine kinase inhibitors [2]: reduced PrP^Sc levels
- T1/2 ([3]; po, 60 mg/kg): 1.4 ± 0.3 h
- T1/2 ([3]; po, 100 mg/kg): 1.4 ± 0.7 h
- half-life (in vivo; golden, 60 mg/kg): 1 ± 0.4 h
- half-life (in vivo; golden, 100 mg/kg): 1.2 ± 0.2 h

Compound: Cc1cn(-c2cc(NC(=O)c3ccc(C)c(Nc4nccc(-c5cnccn5)n4)c3)cc(C(F)(F)F)c2)cn1 [radotinib, Radotinib hydrochloride]
- PrPSc levels (ZW13-2-22L cells): mild reduction in PrP^Sc levels
- PrPSc levels (ZW13-2-139A cells): mild reduction in PrP^Sc levels
- PrPSc propagation [4]: reduced PrP^Sc propagation
- PrPSc propagation ([2]; 0–40 μM for 5 weeks): reduced PrP^Sc propagation in 263K scrapie-infected hamster cerebellar tissue slices in a dose-dependent manner
- PrPSc propagation, treatment in the final 2 weeks ([2]; 10 μM, final 2 weeks of 5-week culture): effectively inhibited PrP^Sc propagation
- PrPSc propagation, one week of treatment ([2]; 10 μM, final one week of 5-week culture): did not reduce PrP^Sc propagation
- PrPSc levels, comparison of c-Abl tyrosine kinase inhibitors [2]: reduced PrP^Sc accumulation
- levels of PrPSc, later treatment ([2]; 10–40 μM, 2 weeks without drug then final 3 weeks with radotinib): dramatically reduced the levels of PrP^Sc
- survival time, range (263K scrapie strain [5]; 30 mg/kg IG, n = 8): 140–154 dpi
- mean survival time (263K scrapie strain [5]; 30 mg/kg IG, n = 8, p = 0.05848): 145.1 ± 5.3 dpi
- survival time, range (263K scrapie strain [5]; 60 mg/kg IG, n = 8): 112–208 dpi
- mean survival time (263K scrapie strain [5]; 60 mg/kg IG, n = 8, p = 0.03022): 161.0 ± 34.8 dpi
- survival time (263K scrapie strain [5]; 100 mg/kg IG for the initial 10 weeks (10W-initial), n = 10, p = 0.0446): 149.6 ± 25.3 dpi
- survival time, range (263K scrapie strain [5]; 100 mg/kg IG for the initial 10 weeks, n = 10): 112–191 dpi
- survival time, range (263K scrapie strain [5]; 100 mg/kg IG once a day, 6 days a week, n = 12): 124–223 dpi
- survival time (263K scrapie strain [5]; 100 mg/kg IG once a day, 6 days a week, n = 12, p = 0.00217 vs vehicle (135.1 ± 9.9)): 159.3 ± 28.6 dpi
- mean survival time (263K scrapie strain [5]; 100 mg/kg IG started 4 weeks postinoculation (4W-post), n = 9, p = 0.02333): 158.0 ± 31.9 dpi
- survival time, range (263K scrapie strain [5]; 100 mg/kg IG started 4 weeks postinoculation, n = 9): 126–210 dpi
- mean survival time (263K scrapie strain [5]; 100 mg/kg IG started 8 weeks postinoculation (8W-post), n = 9, p = 0.08559): 146.9 ± 23.7 dpi
- survival time, range (263K scrapie strain [5]; 100 mg/kg IG started 8 weeks postinoculation, n = 9): 114–181 dpi
- survival times (abstract) (263K scrapie strain [5]; 100 mg/kg intragastrically, nontreated 135 ± 9.9 days): 159 ± 28.6 days
- survival time, range (263K scrapie strain [5]; 200 mg/kg IG, n = 8): 112–210 dpi
- mean survival time (263K scrapie strain [5]; 200 mg/kg IG, n = 8, p = 0.01944): 157.0 ± 33.9 dpi
- survival time (263K scrapie strain [5]; intraperitoneal route, 10 mg/kg/day 6 days a week, n = 6, no significant difference): 155 ± 50 dpi
- PrPSc levels in the brains, Western blot (263K scrapie strain [6]; hamsters sacrificed at 146 dpi): markedly decreased
- PrPSc levels in the brains, Western blot (263K scrapie strain [6]; hamsters that died naturally): also high
- total PrP and PK-resistant PrPSc levels in the brains, immunohistochemical staining (263K scrapie strain [6]; sacrificed on 146 dpi, compared to control-treated infected hamsters): definitely lower
- cell viability [7]: No decrease in viability
- blood–brain barrier crossing in hamsters [3]: effectively crosses the BBB in hamsters
- Tmax Median (range, h) ([3]; po, 100 mg/kg): 6.0 ± 1.15 (6.0–8.0) h
- Kp (in vivo; golden, 60 mg/kg, AUClast): 0.137 ± 0.021
- Kp (in vivo; golden, 60 mg/kg, Cmax): 0.137 ± 0.023
- Kp (in vivo; golden, 100 mg/kg, AUClast): 0.232 ± 0.155
- Kp (in vivo; golden, 100 mg/kg, Cmax): 0.149 ± 0.014
- Tmax (in vivo; golden, 60 mg/kg): 6 h
- Tmax (in vivo; golden, 100 mg/kg): 6 h
- half-life (in vivo; golden, 100 mg/kg): 3.3 h
- Kp (in vivo; 60 mg/kg, AUClast): 0.137 ± 0.021
- Kp (in vivo; 100 mg/kg, AUClast): 0.232 ± 0.155
- blood–brain barrier crossing [8]: effectively crosses the blood–brain barrier

Compound: O=c1n(CCCN2CCN(c3cccc(Cl)c3)CC2)nc2ccccn12 [trazodone hydrochloride]
- survival [1]: significantly prolong survival without reducing the PrP^Sc levels
